Where a SMILES comes first, the peptide text is derived from it.
Experiments:
[1] = organism: Rattus norvegicus; assay: Tested for antagonist activity in rat uterus with respect to human angiotensin II as reference; type: functional; conditions: read-out: pA2 (converted)
[2] = organism: Rattus norvegicus; assay: Tested for agonist activity in rat uterus with respect to human angiotensin II; type: functional

Row | SMILES | Kb [1] | Agonist activity [2]
1 | CC[C@H](C)[C@@H]1NC(=O)[C@H](Cc2ccc(O)cc2)NC(=O)[C@H](Cc2ccccc2)NC(=O)[C@@H]2CCCN2C(=O)[C@H](Cc2c[nH]cn2)NC1=O (cyclo(FYIHP)) [listing 1 of 2 here] | > 10 µM | –
2 | CC[C@H](C)[C@@H]1NC(=O)[C@H](Cc2ccc(O)cc2)NC(=O)[C@H](Cc2ccccc2)NC(=O)[C@@H]2CCCN2C(=O)[C@H](Cc2c[nH]cn2)NC1=O (cyclo(FYIHP)) [listing 2 of 2 here] | – | <0.1%
